Data taken from ChEMBL document CHEMBL6109078, “Pyrylium derivatives as outer membrane permeabilizers against MDR gram-negative bacteria via multi-target mode of action” (Eur J Med Chem, 2025).
Calls of active or inactive are those of the source. The rule behind the calls is not given here.

What was measured:
[1] = system: Cell membrane; experiment: Induction of outer membrane damage in Escherichia coli ATCC 25922 assessed as local fractures at 12.5 microg/ml incubated for 1 hrs by TEM analysis; settings: dose 12.5 µg/ml
[2] = system: Cell membrane; experiment: Disruption of outer membrane integrity in Escherichia coli ATCC 25922 assessed as increase in EtBr uptake by fluorescence plate reader analysis
[3] = system: Cell membrane; experiment: Induction of outer membrane damage in Escherichia coli ATCC 25922 assessed as accumulation of membrane-like structures near inner membrane at 12.5 microg/ml incubated for 1 hrs by TEM analysis; settings: dose 12.5 µg/ml
[4] = system: Acinetobacter baumannii; experiment: Antibacterial activity against multi-drug resistant Acinetobacter baumannii clinical isolate 2 assessed as inhibition of bacterial growth by CLSI protocol based method; format: functional
[5] = Binding affinity to His-tagged LptA (unknown origin) extracted from Escherichia coli BL21 (DE3) cells assessed as dissociation constant by BLI analysis; set-up: species or system Bacteria
[6] = system: Acinetobacter baumannii; experiment: Synergistic antibacterial activity against multi-drug resistant Acinetobacter baumannii clinical isolate 5 assessed as fractional inhibitory concentration index in presence of amikacin by checkerboard assay; format: functional
[7] = system: Escherichia coli; experiment: Synergistic antibacterial activity against multi-drug resistant Escherichia coli clinical isolate 1 assessed as fractional inhibitory concentration index in presence of polymyxin B by checkerboard assay; format: functional
[8] = system: Escherichia coli; experiment: Synergistic antibacterial activity against Escherichia coli CG-4 expressing MCR-1 and NDM-1 assessed as fractional inhibitory concentration index in presence of gentamycin by checkerboard assay; format: functional
[9] = system: Escherichia coli; experiment: Synergistic antibacterial activity against Escherichia coli ATCC 25922 assessed as fractional inhibitory concentration index in presence of polymyxin B by checkerboard assay; format: functional
[10] = system: Acinetobacter baumannii; experiment: Synergistic antibacterial activity against Acinetobacter baumannii ATCC 19606 assessed as fractional inhibitory concentration index in presence of gentamycin by checkerboard assay; format: functional
[11] = system: Acinetobacter baumannii; experiment: Synergistic antibacterial activity against multi-drug resistant Acinetobacter baumannii clinical isolate 43 assessed as fractional inhibitory concentration index in presence of polymyxin B by checkerboard assay; format: functional
[12] = system: Escherichia coli; experiment: Synergistic antibacterial activity against Escherichia coli ATCC 25922 assessed as inhibition of bacterial growth by measuring polymyxin B MIC by checkerboard assay; format: functional
[13] = system: Acinetobacter baumannii; experiment: Synergistic antibacterial activity against multi-drug resistant Acinetobacter baumannii clinical isolate 1 assessed as inhibition of bacterial growth in presence of polymyxin B by checkerboard assay; format: functional
[14] = system: Klebsiella pneumoniae; experiment: Antibacterial activity against Klebsiella pneumoniae BAA ATCC 1706 assessed as inhibition of bacterial growth by CLSI protocol based method; format: functional
[15] = system: Escherichia coli; experiment: Synergistic antibacterial activity against multi-drug resistant Escherichia coli clinical isolate 1 assessed as inhibition of bacterial growth by measuring polymyxin B MIC by checkerboard assay; format: functional
[16] = system: Acinetobacter baumannii; experiment: Antibacterial activity against Acinetobacter baumannii ATCC 19606 assessed as inhibition of bacterial growth by CLSI protocol based method; format: functional
[17] = system: Acinetobacter baumannii; experiment: Synergistic antibacterial activity against multi-drug resistant Acinetobacter baumannii clinical isolate 1 assessed as inhibition of bacterial growth by measuring polymyxin B MIC by checkerboard assay; format: functional
[18] = system: Acinetobacter baumannii; experiment: Antibacterial activity against Acinetobacter baumannii ATCC 19606 assessed as bacterial killing at 100 microg/ml measured within 4 to 12 hrs by time-kill kinetics analysis; format: functional; settings: dose 100 µg/ml; time 4-12 hrs
[19] = system: Acinetobacter baumannii; experiment: Synergistic antibacterial activity against multi-drug resistant Acinetobacter baumannii clinical isolate 14 assessed as fractional inhibitory concentration index in presence of polymyxin B by checkerboard assay; format: functional
[20] = system: Escherichia coli; experiment: Antibacterial activity against Escherichia coli ATCC 25922 assessed as inhibition of bacterial growth by measuring fold increase in MIC incubated for 16 to 18 hrs in presence of Mg2+; format: functional; settings: time 16-18 hrs
[21] = system: Bacteria; experiment: Binding affinity to His-tagged LptA (unknown origin) extracted from Escherichia coli BL21 (DE3) cells by BLI analysis
[22] = Binding affinity to His-tagged LptC (unknown origin) extracted from Escherichia coli BL21 (DE3) cells assessed as dissociation constant by BLI analysis; set-up: species or system Bacteria
[23] = system: Escherichia coli; experiment: Antibacterial activity against Escherichia coli ATCC 25922 assessed as inhibition of bacterial growth by measuring decrease in bacterial count at 6.25 to 50 microg/ml measured after 12 hrs by time-kill kinetics analysis; format: functional; settings: dose 6.25-50 µg/ml
[24] = system: Acinetobacter baumannii; experiment: Synergistic antibacterial activity against multi-drug resistant Acinetobacter baumannii clinical isolate 14 assessed as fractional inhibitory concentration index in presence of amikacin by checkerboard assay; format: functional
[25] = system: Escherichia coli; experiment: Induction of morphological changes in Escherichia coli ATCC 25922 assessed as appearance of longer bacterial cells at 6.25 microg/ml incubated for 1 hrs by optical microscopic analysis; format: functional, organism-based; settings: dose 6.25 µg/ml
[26] = system: Acinetobacter baumannii; experiment: Synergistic antibacterial activity against multi-drug resistant Acinetobacter baumannii clinical isolate 5 assessed as inhibition of bacterial growth in presence of polymyxin B by checkerboard assay; format: functional
[27] = system: Escherichia coli; experiment: Synergistic antibacterial activity against Escherichia coli ATCC 25922 assessed as fractional inhibitory concentration index in presence of amikacin by checkerboard assay; format: functional
[28] = system: Escherichia coli; experiment: Antibacterial activity against Escherichia coli ATCC 25922 infected in Galleria mellonella larvae assessed as survival rate at 50 microg/ml measured 96 hrs post-inoculation relative to control; format: functional
[29] = system: Escherichia coli; experiment: Synergistic antibacterial activity against multi-drug resistant Escherichia coli clinical isolate 1 assessed as inhibition of bacterial growth in presence of polymyxin B by checkerboard assay; format: functional
[30] = system: Klebsiella pneumoniae; experiment: Synergistic antibacterial activity against Klebsiella pneumoniae assessed as inhibition of bacterial growth in presence of polymyxin B by checkerboard assay; format: functional, organism-based
[31] = system: Acinetobacter baumannii; experiment: Antibacterial activity against multi-drug resistant Acinetobacter baumannii clinical isolate 10 assessed as inhibition of bacterial growth by CLSI protocol based method; format: functional
[32] = system: Cell membrane; experiment: Induction of outer membrane damage in Escherichia coli ATCC 25922 assessed as local damage at 12.5 microg/ml incubated for 1 hrs by TEM analysis; settings: dose 12.5 µg/ml
[33] = system: Escherichia coli; experiment: Synergistic antibacterial activity against Escherichia coli ATCC 35218 assessed as fractional inhibitory concentration index in presence of polymyxin B by checkerboard assay; format: functional
[34] = system: Escherichia coli; experiment: Antibacterial activity against Escherichia coli ATCC 25922 assessed as bacterial killing at 100 microg/ml measured within 4 to 12 hrs by time-kill kinetics analysis; format: functional; settings: dose 100 µg/ml; time 4-12 hrs
[35] = system: Escherichia coli; experiment: Antibacterial activity against ESBL positive Escherichia coli ATCC 35218 assessed as inhibition of bacterial growth by CLSI protocol based method; format: functional
[36] = system: Cell membrane; experiment: Induction of outer membrane damage in Escherichia coli ATCC 25922 assessed as loose outer membrane with decrease in electron cloud density at 12.5 microg/ml incubated for 1 hrs by TEM analysis; settings: dose 12.5 µg/ml
[37] = system: Escherichia coli; experiment: Synergistic antibacterial activity against Escherichia coli ATCC 35218 assessed as fractional inhibitory concentration index in presence of gentamycin by checkerboard assay; format: functional
[38] = system: Acinetobacter baumannii; experiment: Synergistic antibacterial activity against multi-drug resistant Acinetobacter baumannii clinical isolate 14 assessed as inhibition of bacterial growth by measuring polymyxin B MIC by checkerboard assay; format: functional
[39] = system: Acinetobacter baumannii; experiment: Antibacterial activity against multi-drug resistant Acinetobacter baumannii clinical isolate 43 assessed as inhibition of bacterial growth by CLSI protocol based method; format: functional

Row | SMILES | MIC [4] [µg/mL] | fractional inhibitory concentration index (FICI) [6] | fractional inhibitory concentration index (FICI) [7] | fractional inhibitory concentration index (FICI) [8] | fractional inhibitory concentration index (FICI) [9] | fractional inhibitory concentration index (FICI) [10] | fractional inhibitory concentration index (FICI) [11] | MIC [12] | MIC [13] [µg/mL] | MIC [14] [µg/mL] | MIC [15] [µg/mL] | MIC [16] [µg/mL] | MIC [17] [µg/mL] | Activity [21] | Activity [23] [log10CFU/ml] | fractional inhibitory concentration index (FICI) [24] | MIC [26] [µg/mL] | fractional inhibitory concentration index (FICI) [27] | MIC [29] [µg/mL] | Activity [30] | also measured
1 | CCN(CC)c1ccc(/C=C/c2cc(C(C)(C)C)[o+]c(C(C)(C)C)c2)cc1.O=S(=O)([O-])C(F)(F)F | 6.25 | 0.125 | 0.031 | 0.125 | 0.266 | 0.125 | 0.5 | 7.8 10^-4 ug/ml | 1.56 | 12.5 | 0.2 | 12.5 | 0.2 | Dose-dependent-effect | <6 | 0.125 | 1.56 | 0.125 | 3.12 | inactive | Activity [1]: Active; Activity [2]: Dose-dependent-effect; Activity [3]: Active; Kd [5]: 0.48 µM; Activity [18]: 100%; fractional inhibitory concentration index (FICI) [19]: 0.141; fold change (FC) [20]: 2; Kd [22]: 0.49 µM; Activity [25]: Active; survival at 50 µg/mL [28]: 40%; MIC [31]: 12.5 µg/mL; Activity [32]: Active; fractional inhibitory concentration index (FICI) [33]: 0.375; Activity [34]: 100%; MIC [35]: 6.25 µg/mL; Activity [36]: Active; fractional inhibitory concentration index (FICI) [37]: 0.125; MIC [38]: 0.006 µg/mL; MIC [39]: 12.5 µg/mL
2 | CN1CCOc2cc(/C=C/c3cc(C(C)(C)C)[o+]c(C(C)(C)C)c3)ccc21.O=S(=O)([O-])C(F)(F)F | 100 | 0.125 | 0.047 | 0.125 | 0.266 | 0.125 | <0.25 | 7.8 10^-4 ug/ml | 12.5 | > 100 | 0.2 | 50 | 0.05 | inactive | <6 | 0.125 | 6.25 | 0.125 | 12.5 | inactive | MIC [31]: 50 µg/mL; fractional inhibitory concentration index (FICI) [33]: 0.312; MIC [35]: 25 µg/mL; fractional inhibitory concentration index (FICI) [37]: 0.125; MIC [38]: 0.012 µg/mL; MIC [39]: 100 µg/mL
3 | CC(C)(C)c1cc(/C=C/c2ccc(N3CCCC3)cc2)cc(C(C)(C)C)[o+]1.O=S(=O)([O-])C(F)(F)F | 6.25 | 0.125 | 0.063 | 0.125 | 0.156 | 0.125 | 0.5 | 31.25 10^-4 ug/ml | 3.12 | > 100 | 0.39 | 12.5 | 1.56 | Dose-dependent-effect | <6 | 0.125 | 1.56 | 0.125 | 6.25 | inactive | Activity [1]: Active; Activity [2]: Dose-dependent-effect; Activity [3]: Active; Kd [5]: 15 µM; Activity [18]: 100%; fractional inhibitory concentration index (FICI) [19]: 0.313; fold change (FC) [20]: 2; Kd [22]: 63.7 µM; Activity [25]: Active; survival at 50 µg/mL [28]: 40%; MIC [31]: 6.25 µg/mL; Activity [32]: Active; fractional inhibitory concentration index (FICI) [33]: 0.375; Activity [34]: 100%; MIC [35]: 6.25 µg/mL; Activity [36]: Active; fractional inhibitory concentration index (FICI) [37]: 0.125; MIC [38]: 0.024 µg/mL; MIC [39]: 12.5 µg/mL
